Values joined by “and” are separate entries in the source; they are usually repeats but may differ in a detail not shown here. Equal values may be shown once.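 Step 1: Grow cells in 96-well plates. Step 2: Expose to compound for 48 hours at 5 concentrations. Step 3: Interpolate endpoints linearly; if unreached, use highest concentration. Here, GI50 denotes the concentration required for 50% inhibition of growth. TGI: concentration producing complete growth inhibition.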
Legend:
Experiment in all cases: inhibition of tumour cell growth, NCI panel, 48 h
[1] = test system: NCI-H23 lung
[2] = test system: OVCAR-4 ovarian
[3] = test system: MOLT-4 leukemia
[4] = test system: HOP-92 NSCLC
[5] = test system: NCI-H522 lung
[6] = test system: SK-MEL-2 melanoma
[7] = test system: NCI-H226 lung
[8] = test system: RXF 393 renal
[9] = test system: HCT-116 colon
[10] = test system: SK-MEL-28 melanoma

Structure (SMILES) | GI50 [1] [µM] | GI50 [2] [µM] | TGI [2] [µM] | GI50 [3] [µM] | GI50 [4] [µM] | TGI [4] [µM] | GI50 [5] [µM] | TGI [5] | GI50 [6] [µM] | TGI [6] [µM] | TGI [7] [µM] | TGI [1] [µM] | TGI [3] [µM] | TGI [8] [µM] | TGI [9] [µM] | TGI [10] [µM] | GI50 [8] [µM] | GI50 [7] [µM] | GI50 [9] [µM] | GI50 [10] [µM]
COc1cc(C2c3[nH]c4ccccc4c3C[C@H]3COC(=O)N23)cc(OC)c1OC (some centres undefined) | < 0.01 | 0.507 | > 100 | < 0.01 | 0.0184 | > 100 | < 0.01 | 0.04 µM and < 0.01 µM | < 0.01 | > 100 | 0.902 |  |  |  |  |  |  |  |  | 
CC1CC[C@]2(C(=O)O)CCC3(COC(=O)/C=C\c4ccc(O)cc4)C(=CCC4[C@@]5(C)CC[C@H](O)C(C)(C)C5CC[C@]43C)[C@@H]2[C@H]1C (some centres undefined) |  |  | > 100 |  |  |  |  | 44.6 µM |  | 51.8 | 39.5 | 28.5 | > 100 | 33.9 | 37 | 35.5 |  |  |  | 
C=C1C(=O)O[C@H]2[C@H]1CC/C(CNC(=O)Cc1c[nH]c3ccccc13)=C\CC[C@@]1(C)O[C@@H]21 | 3.54 | 1.74 | 15.7 | 1.83 | 2.17 | 5.25 | 0.365 | 1.38 µM | 6.46 | 22.2 | 7.81 | 18.6 | 5.75 | 5.65 | 2.55 |  | 1.3 | 2.42 | 0.533 | 
O=C(Nc1ccc(Cl)cc1Cl)C1C(=O)N(c2ccc(Cl)cc2Cl)C(=O)/C1=N\Nc1ccc([N+](=O)[O-])cc1[N+](=O)[O-] (centres undefined) |  |  | > 100 |  |  | 62.3 |  | 71 µM |  | > 100 | > 100 | 87.6 | 74.8 |  | > 100 | > 100 |  |  |  | 
CC1CC(C2=CC=CCS2)=Nc2ccccc2S1 (centres undefined) |  |  | > 100 |  |  | > 100 |  | > 100 µM |  | > 100 |  | > 100 | > 100 | > 100 | > 100 | > 100 |  |  |  | 
CCN(CC)CCOCC[C@H]1CC[C@H]2[C@@H]3[C@H](C)Cc4cc(OS(N)(=O)=O)ccc4[C@H]3CC[C@]12C | 1.06 | 0.806 | 2.29 | 1.53 | 1.39 | 3.5 | 1.52 | 3.39 µM | 2.32 | 4.45 |  | 2.92 | 4.31 | 4.12 | 2.08 | 2.53 | 1.67 |  | 0.696 | 1.27
CCSCC1CC(O)(c2ccccc2)C(c2ccccc2)C(c2ccc(Cl)cc2)O1 (centres undefined) | 1.88 | 1.66 | 4.35 | 1.73 |  |  |  |  | 1.73 | 3.5 | 3.97 | 3.94 | 9.82 | 2.06 | 2.58 | 4.19 | 0.688 | 1.74 | 1.21 | 1.79
Cc1cccc(NC(=O)CCc2ccc(N3C(N)=NC(N)=NC3(C)C)cc2)c1 | 6.32 | 18.4 | > 100 | 2.7 | 26 | > 100 |  |  | > 33.6 | > 100 | > 100 | > 100 | > 100 | > 100 | > 100 | > 100 | > 42.1 | > 64.7 | 0.632 | 11.8
F | 5260 | > 6870 | > 6870 | > 6870 | 1850 | > 6870 | 4970 | > 6870 µM | 1440 | 2890 | > 6870 | > 6870 | > 6870 | 5200 | > 6870 |  | 2360 | > 6870 | 2820 | 
O=C(Nc1c(O)[nH]c(=S)[nH]c1=O)c1ccccc1F |  |  | > 100 |  |  | > 100 |  | > 100 µM |  | > 100 | > 100 | > 100 | > 100 |  | > 100 | > 100 |  |  |  | 
CC(C)(C)OC1=C(OC(C)(C)C)C(O)(c2ccccc2)C1=O (centres undefined) |  |  | > 100 |  |  |  |  |  |  |  |  | > 100 | > 100 | > 100 |  | > 100 |  |  |  | 
COC(=O)C1=C(c2ccc(OC)c(OC)c2)OC(c2ccc(OC)c(OC)c2)C1 (centres undefined) |  |  | > 100 |  |  | > 100 |  |  |  | > 100 | > 100 | > 100 | 47.5 | 69.9 | > 100 | > 100 |  |  |  | 
NCCNc1c2c(c(NCCN)c3c(CO)c[nH]c13)C(=O)c1ccccc1C2=O | 17.2 | 38.3 | > 100 | 3.93 | 24 | > 100 | 8.13 | > 100 µM |  |  | 91.6 | > 100 | > 100 | 34.7 | > 100 | > 100 | 5.84 | 17.9 | 7.11 | 24.5
CN(C)c1ccc2c(=O)c3ccccc3oc2n1 |  |  | > 100 |  |  | > 100 |  | > 100 µM |  | > 100 |  | > 100 | > 100 | > 100 |  | > 100 |  |  |  | 
COc1ccc(C2CC(=O)c3c(O)cc(O)cc3O2)cc1O (centres undefined) |  |  | > 100 |  |  |  |  | > 100 µM |  | > 100 | > 100 | > 100 | > 100 |  | > 100 | > 100 |  |  |  | 
CC(=O)N[C@@H](Cc1ccc(OP(=O)(O)O)cc1)C(=O)N[C@H]1CCC(=O)N2CCC[C@@H](C(=O)NCc3ccc(Cl)cc3)N2C1=O | > 25 | > 25 | > 25 | > 25 |  |  | > 25 | > 25 µM | > 25 | > 25 | > 25 | > 25 | > 25 | > 25 | > 25 | > 25 | > 25 | > 25 | > 25 | > 25
N#Cc1ccccc1NC(=O)/C(=N\N)C(C(=O)c1ccncc1)C1OC(=O)c2ccccc21 (centres undefined) |  |  | > 100 |  |  | > 100 |  | > 100 µM |  | > 100 | > 100 | > 100 | > 100 |  | > 100 | > 100 |  |  |  | 
O=C(O)C/C(=C\c1ccco1)C(=O)O |  |  | > 100 |  |  |  |  | > 100 µM |  | > 100 | > 100 | > 100 | > 100 | > 100 | > 100 | > 100 |  |  |  | 

Source: PubChem BioAssay (NCI)
